Reference: patent publication US5506102A (priority 1993, dated 1996)

Assays:
[1] = target: T1, human progesterone receptor isoform PR-A (Homo sapiens, UniProt P06401); test: PR-A transactivation of MMTV-LUC reporter, transient transfection; format: cell-based; details: 10^-7 M progesterone
T1 sequence (P06401 165-933): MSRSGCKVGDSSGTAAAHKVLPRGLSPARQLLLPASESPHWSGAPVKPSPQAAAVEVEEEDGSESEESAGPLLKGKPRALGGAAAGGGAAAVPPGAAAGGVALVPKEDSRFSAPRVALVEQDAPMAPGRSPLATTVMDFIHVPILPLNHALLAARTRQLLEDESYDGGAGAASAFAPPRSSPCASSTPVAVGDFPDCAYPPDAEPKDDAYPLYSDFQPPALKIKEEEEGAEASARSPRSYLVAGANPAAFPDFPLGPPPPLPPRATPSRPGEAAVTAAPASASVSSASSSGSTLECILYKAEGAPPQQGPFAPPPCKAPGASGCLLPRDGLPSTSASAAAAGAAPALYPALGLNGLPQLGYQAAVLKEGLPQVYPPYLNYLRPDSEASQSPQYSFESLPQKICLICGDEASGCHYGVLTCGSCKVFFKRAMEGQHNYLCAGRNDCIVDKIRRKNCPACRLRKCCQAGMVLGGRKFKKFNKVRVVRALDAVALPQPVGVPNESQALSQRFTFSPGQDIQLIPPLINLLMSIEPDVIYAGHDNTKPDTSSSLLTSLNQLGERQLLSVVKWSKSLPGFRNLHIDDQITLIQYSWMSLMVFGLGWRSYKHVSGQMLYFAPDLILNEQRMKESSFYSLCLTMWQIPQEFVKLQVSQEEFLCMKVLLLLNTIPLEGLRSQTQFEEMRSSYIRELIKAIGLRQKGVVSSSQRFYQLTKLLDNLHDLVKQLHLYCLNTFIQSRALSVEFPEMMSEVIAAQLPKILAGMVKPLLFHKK
Experimental: Cells were seeded in 12-well, 96-well or 10 cm tissue culture plates. […] 20 μg of DNA/ml of transfection buffer were used in each transfection reaction. In this mix, the concentration of the luciferase plasmids and that of the internal control plasmid pCH110 (Pharmacia, Inc.), which contains the gene for the β-galactosidase enzyme, remained constant ([…] of each plasmid DNA), while the receptor plasmid concentration varied as indicated for each experiment. Different amounts of receptor parental plasmid, pSV2-neo (Dr. Bert O'Malley, Baylor College of Medicine, Houston, Tex.) was included to keep constant the total amount of the SV40 enhancer vectors. pGEM4 plasmid DNA (Promega Biotech, Madison, Wis.) was added to balance the total DNA concentration to 20 g/reaction. For the 96-well plate experiments, transfections were performed on a Biomek 1000 Automated Laboratory Workstation (Beckman Instruments, Fullerton, Calif.).
Cells were seeded 24 hours prior to transfection in the fiat-bottom tissue culture plates ([…]) in phenol red-free DMEM containing 10% FCS. […] Using calcium phosphate co-precipitation, DNA solution was added dropwise with vortexing into an equal volume of 2X HBS pH 6.9 (280 mM NaCl. 50 mM HEPES, 1.5 mM Na2 HPO4) and precipitates were allowed to form for 20 minutes. Cells were transfected ( […] of DNA mix/well) for 6 hours and then washed with phosphate-bufferedsaline (PBS) to remove the precipitate. Cells were incubated for an additional 24 hours in phenol red-free medium containing 10% charcoal-treated FCS, with or without hormones as indicated in the text. Cell extracts were prepared as described by Berger et al., Supra, and assayed for luciferase and β-galactosidase activities. All determinations were performed in triplicates in at least two independent experiments, and were normalized for transfection efficiency by using β-galactosidase as an internal control.

human estrogen receptor = target: T2, human estrogen receptor (Homo sapiens, UniProt P03372); test: ER transcriptional activity on MMTV-ERE-LUC, CV-1 cells, ER alone; format: cell-based; details: 10^-7 M 17β-estradiol
T2 construct: expressed in transfected cells; host or cells: CV-1
T2 sequence (P03372 1-595): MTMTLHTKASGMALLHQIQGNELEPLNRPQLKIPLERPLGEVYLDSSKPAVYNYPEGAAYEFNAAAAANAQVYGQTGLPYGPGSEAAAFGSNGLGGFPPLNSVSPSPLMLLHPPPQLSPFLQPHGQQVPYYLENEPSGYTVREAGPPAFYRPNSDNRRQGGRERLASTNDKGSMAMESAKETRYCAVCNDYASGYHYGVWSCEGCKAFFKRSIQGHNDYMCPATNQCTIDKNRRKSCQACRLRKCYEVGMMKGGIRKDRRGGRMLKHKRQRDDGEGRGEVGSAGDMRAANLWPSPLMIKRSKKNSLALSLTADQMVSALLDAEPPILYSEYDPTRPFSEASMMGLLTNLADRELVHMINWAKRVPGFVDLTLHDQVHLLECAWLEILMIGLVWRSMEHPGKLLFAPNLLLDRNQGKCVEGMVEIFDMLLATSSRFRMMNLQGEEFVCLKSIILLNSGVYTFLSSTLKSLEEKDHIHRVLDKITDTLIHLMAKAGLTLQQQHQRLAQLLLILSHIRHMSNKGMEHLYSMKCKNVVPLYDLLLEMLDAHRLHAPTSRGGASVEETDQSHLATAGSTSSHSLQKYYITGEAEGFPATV
Experimental: All values were normalized for transfection efficiency by simultaneous estimation of luciferase and β-galactocidase activities. The relative luciferase activity is calculated by dividing the normalized luciferase value at a given point by that obtained in the absence of transfected receptor or ligand. Data shown represent the mean +/- the average deviation from the mean of triplicate estimations.
Experimental protocols and data calculation are as described in FIG. 11. The experiment detailed above is representative of independent assays (N>3). Data shown represent the mean +/- the average deviation from the mean of triplicate estimations.
Vegeto et al., supra. Cells were plated into 96-well tissue culture plates. The vector DNA was introduced into the CV-1 cells using calcium phosphate coprecipitation as described herein. More specifically, 20 μg of DNA/ml of transfection buffer were used in each transfection. […] The concentration of pXVhPR-A vector chosen was determined by performing the experiment at several different concentrations of vector, and then using that concentration that was optimal for transcriptional readout. […] The Normalized LUC activity was calculated by dividing the raw luciferase (×10^4) units for each point by the β-galactosidase activity [(OD415 nm ×10^5)/time min.] at that point.

CC(=O)[C@H]1CC[C@H]2[C@@H]3CCC4=CC(=O)CC[C@]4(C)[C@H]3CC[C@]12C [progesterone]
progesterone-induced activation of the MMTV promoter by PR-A ([1]; CV-1 cells, FIG. 2A): no progesterone-induced activation of the MMTV promoter by PR-A was observed | maximal induction ([1]; HeLa cells, MMTV, 250 ng of transfected DNA, FIG. 2B): ten-fold | activation of the MMTV promoter by PR-A ([1]; HepG2 cells, FIG. 2C): both PR-A and PR-B functioned as efficient activators | direct effects on ER (human estrogen receptor): no direct effects on ER were observed
